Assay results as given in patent publication US3945994A, “Novel acid compounds” (Gist-Brocades N.V., priority 1973, dated 1976).
In brackets after ≈: the same amount, converted by molar mass.

How the values were obtained:
Assay type in all cases: cell-based
[1] = tested on: Staphylococcus aureus A 2000; details: A2000, agar serial dilution, 24 hours at 37°C
[2] = tested on: Pseudomonas aeruginosa 2396; details: agar serial dilution, 24 hours at 37°C
Escherichia coli U 20 = details: U20, agar serial dilution, 24 hours at 37°C
[3] = tested on: Klebsiella pneumoniae A 809; details: A809, agar serial dilution, 24 hours at 37°C
[4] = tested on: Streptococcus haemolyticus A 266; details: A266, agar serial dilution, 24 hours at 37°C
[5] = tested on: Pseudomonas aeruginosa Wyeth A 1058; details: WYETHA1058, agar serial dilution, 24 hours at 37°C
[6] = tested on: Pseudomonas aeruginosa H 10; details: H10, agar serial dilution, 24 hours at 37°C
[7] = tested on: Streptococcus faecalis L 80; details: Enterococcus faecalis, L80; agar serial dilution, 24 hours at 37°C
Proteus rettgeri A 821 = details: Providencia rettgeri, A821; agar serial dilution, 24 hours at 37°C
[8] = tested on: Staphylococcus aureus A 321; details: A321, agar serial dilution, 24 hours at 37°C
[9] = tested on: Pasteurella multocida A 723; details: A723, agar serial dilution, 24 hours at 37°C
[10] = tested on: Bacillus subtilis ATCC 6633; details: ATCC6633, agar serial dilution, 24 hours at 37°C
Proteus mirabilis A 1200 = details: A1200, agar serial dilution, 24 hours at 37°C
[11] = tested on: Staphylococcus aureus A 355'; details: agar serial dilution, 24 hours at 37°C
Proteus morganii 2241 = details: Morganella morganii, agar serial dilution, 24 hours at 37°C
[12] = tested on: Salmonella typhimurium R 127; details: Salmonella enterica, agar serial dilution, 24 hours at 37°C
Salmonella dublin P 43 = details: Salmonella enterica, P43; agar serial dilution, 24 hours at 37°C
[13] = tested on: Staphylococcus aureus A 2001; details: A2001, agar serial dilution, 24 hours at 37°C
Proteus mirabilis H 3 = details: H3, agar serial dilution, 24 hours at 37°C
[14] = tested on: Diplococcus pneumoniae L 54; details: Streptococcus pneumoniae, L54; agar serial dilution, 24 hours at 37°C

SMILES	MIC [1]	MIC [2]	MIC (Escherichia coli U 20)	MIC [3]	MIC [5]	MIC [6]	MIC [7]	MIC (Proteus rettgeri A 821)	MIC [8]	MIC [9]	MIC [10]	MIC (Proteus mirabilis A 1200)	MIC [11]	MIC (Proteus morganii 2241)	MIC [12]	MIC (Salmonella dublin P 43)	MIC [13]	MIC (Proteus mirabilis H 3)	MIC [14]	MIC [4]
CC(C)NS(=O)(=O)NC(=O)N[C@@H](C(=O)N[C@@H]1C(=O)N2[C@@H]1SC(C)(C)[C@@H]2C(=O)O)c1ccccc1 [IX, D-6-[α-{3-(isopropylaminosulfonyl)-ureido}-benzylcarbonamido]-penicillanic acid]	25 mg/L (≈ 48.7 µM)	> 100 mg/L	25 mg/L (≈ 48.7 µM)	100 mg/L (≈ 195 µM)	> 100 mg/L	> 100 mg/L	25 mg/L (≈ 48.7 µM)	0.75 mg/L (≈ 1.46 µM)	1.5 mg/L (≈ 2.92 µM)	0.5 mg/L (≈ 0.974 µM)	1.5 mg/L (≈ 2.92 µM)	6 mg/L (≈ 11.7 µM)	25 mg/L (≈ 48.7 µM)	100 mg/L (≈ 195 µM)	50 mg/L (≈ 97.4 µM)					0.75 mg/L (≈ 1.46 µM)
CCOS(=O)(=O)NC(=O)N[C@@H](C(=O)N[C@@H]1C(=O)N2[C@@H]1SC(C)(C)[C@@H]2C(=O)O)c1ccccc1 [VI, D-6-[α-{3-(ethoxysulfonyl)-ureido}-benzylcarbonamido]-penicillanic acid]	12.5 mg/L (≈ 25 µM)	25 mg/L (≈ 49.9 µM)	12.5 mg/L (≈ 25 µM)	> 100 mg/L	25 mg/L (≈ 49.9 µM)	100 mg/L (≈ 200 µM)	25 mg/L (≈ 49.9 µM)	1.5 mg/L (≈ 3 µM)	1.5 mg/L (≈ 3 µM)	> 100 mg/L	0.25 mg/L (≈ 0.499 µM)	1.5 mg/L (≈ 3 µM)	50 mg/L (≈ 99.9 µM)	> 100 mg/L	25 mg/L (≈ 49.9 µM)	6 mg/L (≈ 12 µM)	6 mg/L (≈ 12 µM)	12.5 mg/L (≈ 25 µM)	6 mg/L (≈ 12 µM)	0.25 mg/L (≈ 0.499 µM)
CC1(C)S[C@@H]2[C@H](NC(=O)[C@H](NC(=O)NS(=O)(=O)Nc3ccccc3)c3ccccc3)C(=O)N2[C@H]1C(=O)O [VII, D-6-[α-{3-(phenylaminosulfonyl)-ureido}-benzylcarbonamido]-penicillanic acid]	12.5 mg/L (≈ 22.8 µM)	25 mg/L (≈ 45.7 µM)	12.5 mg/L (≈ 22.8 µM)	25 mg/L (≈ 45.7 µM)	50 mg/L (≈ 91.3 µM)	50 mg/L (≈ 91.3 µM)	25 mg/L (≈ 45.7 µM)	1.5 mg/L (≈ 2.74 µM)	1 mg/L (≈ 1.83 µM)	25 mg/L (≈ 45.7 µM)	1 mg/L (≈ 1.83 µM)	3 mg/L (≈ 5.48 µM)	25 mg/L (≈ 45.7 µM)	25 mg/L (≈ 45.7 µM)	25 mg/L (≈ 45.7 µM)	12.5 mg/L (≈ 22.8 µM)	3 mg/L (≈ 5.48 µM)	3 mg/L (≈ 5.48 µM)	1 mg/L (≈ 1.83 µM)	1 mg/L (≈ 1.83 µM)
Cc1cc(NS(=O)(=O)NC(=O)N[C@@H](C(=O)N[C@@H]2C(=O)N3[C@@H]2SC(C)(C)[C@@H]3C(=O)O)c2ccccc2)no1 [XII, D-6-[α-{3-(5-methylisoxazol-3-yl-aminosulfonyl)-ureido}-benzylcarbonamido]-penicillanic acid]	25 mg/L (≈ 45.2 µM)	25 mg/L (≈ 45.2 µM)	25 mg/L (≈ 45.2 µM)	50 mg/L (≈ 90.5 µM)	25 mg/L (≈ 45.2 µM)	100 mg/L (≈ 181 µM)	25 mg/L (≈ 45.2 µM)	6 mg/L (≈ 10.9 µM)	3 mg/L (≈ 5.43 µM)	1.5 mg/L (≈ 2.71 µM)	1.5 mg/L (≈ 2.71 µM)	1.5 mg/L (≈ 2.71 µM)	25 mg/L (≈ 45.2 µM)	50 mg/L (≈ 90.5 µM)	25 mg/L (≈ 45.2 µM)	12.5 mg/L (≈ 22.6 µM)	12.5 mg/L (≈ 22.6 µM)	6 mg/L (≈ 10.9 µM)		1.5 mg/L (≈ 2.71 µM)
CC1(C)S[C@@H]2[C@H](NC(=O)[C@H](NS(N)(=O)=O)c3ccccc3)C(=O)N2[C@H]1C(=O)O [XVIII, D-6-[α-(aminosulfonylamino)-benzylcarbonamido]-penicillanic acid]	6 mg/L (≈ 14 µM)	50 mg/L (≈ 117 µM)	12.5 mg/L (≈ 29.2 µM)	> 100 mg/L	> 100 mg/L	> 100 mg/L	1.5 mg/L (≈ 3.5 µM)	1.5 mg/L (≈ 3.5 µM)	0.5 mg/L (≈ 1.17 µM)	0.5 mg/L (≈ 1.17 µM)	0.5 mg/L (≈ 1.17 µM)	6 mg/L (≈ 14 µM)	12.5 mg/L (≈ 29.2 µM)	25 mg/L (≈ 58.3 µM)	12.5 mg/L (≈ 29.2 µM)	6 mg/L (≈ 14 µM)	3 mg/L (≈ 7 µM)	12.5 mg/L (≈ 29.2 µM)		0.06 mg/L (≈ 0.14 µM)

Continued by falling MIC [2], values first:

MIC [1]	MIC [2]	MIC (Escherichia coli U 20)	MIC [3]	MIC [5]	MIC [6]	MIC [7]	MIC (Proteus rettgeri A 821)	MIC [8]	MIC [9]	MIC [10]	MIC (Proteus mirabilis A 1200)	MIC [11]	MIC (Proteus morganii 2241)	MIC [12]	MIC (Salmonella dublin P 43)	MIC [13]	MIC (Proteus mirabilis H 3)	MIC [14]	SMILES	MIC [4]
12.5 mg/L (≈ 22.4 µM)	100 mg/L (≈ 179 µM)	25 mg/L (≈ 44.8 µM)	100 mg/L (≈ 179 µM)	25 mg/L (≈ 44.8 µM)	> 100 mg/L	25 mg/L (≈ 44.8 µM)	< 0.75 mg/L	3 mg/L (≈ 5.38 µM)	0.25 mg/L (≈ 0.448 µM)	1 mg/L (≈ 1.79 µM)	3 mg/L (≈ 5.38 µM)	25 mg/L (≈ 44.8 µM)	50 mg/L (≈ 89.7 µM)	50 mg/L (≈ 89.7 µM)	25 mg/L (≈ 44.8 µM)	12.5 mg/L (≈ 22.4 µM)	1.5 mg/L (≈ 2.69 µM)	1.5 mg/L (≈ 2.69 µM)	CCOC(=O)CNS(=O)(=O)NC(=O)N[C@@H](C(=O)N[C@@H]1C(=O)N2[C@@H]1SC(C)(C)[C@@H]2C(=O)O)c1ccccc1 [X, D-6-[α-{3-(ethoxycarbonylmethylaminosulfonyl)-ureido}-benzylcarbonamido]-penicillanic acid]	0.25 mg/L (≈ 0.448 µM)
	50 mg/L (≈ 90 µM)	25 mg/L (≈ 45 µM)	25 mg/L (≈ 45 µM)	50 mg/L (≈ 90 µM)	100 mg/L (≈ 180 µM)	6 mg/L (≈ 10.8 µM)	25 mg/L (≈ 45 µM)	1 mg/L (≈ 1.8 µM)	6 mg/L (≈ 10.8 µM)	1 mg/L (≈ 1.8 µM)	50 mg/L (≈ 90 µM)		100 mg/L (≈ 180 µM)	100 mg/L (≈ 180 µM)	25 mg/L (≈ 45 µM)	6 mg/L (≈ 10.8 µM)	100 mg/L (≈ 180 µM)	1 mg/L (≈ 1.8 µM)	CC(C)N(C(C)C)S(=O)(=O)NC(=O)N[C@@H](C(=O)N[C@@H]1C(=O)N2[C@@H]1SC(C)(C)[C@@H]2C(=O)O)c1ccccc1 [VIII, D-6-[α-{3-(diisopropylaminosulfonyl)-ureido}-benzylcarbonamido]-penicillanic acid]	0.25 mg/L (≈ 0.45 µM)
	50 mg/L (≈ 91.1 µM)	> 100 mg/L	> 100 mg/L	50 mg/L (≈ 91.1 µM)	> 100 mg/L	6 mg/L (≈ 10.9 µM)	3 mg/L (≈ 5.47 µM)	3 mg/L (≈ 5.47 µM)	0.5 mg/L (≈ 0.911 µM)	0.25 mg/L (≈ 0.456 µM)			> 100 mg/L	> 100 mg/L	50 mg/L (≈ 91.1 µM)		< 0.75 mg/L	0.25 mg/L (≈ 0.456 µM)	CC1(C)S[C@@H]2[C@H](NC(=O)[C@H](NC(=O)NS(=O)(=O)Nc3cccnc3)c3ccccc3)C(=O)N2[C@H]1C(=O)O [XI, D-6-[α-{3-(pyrid-3-ylaminosulfonyl)-ureido}-benzylcarbonamido]-penicillanic acid]	0.12 mg/L (≈ 0.219 µM)
25 mg/L (≈ 46.2 µM)	50 mg/L (≈ 92.3 µM)	50 mg/L (≈ 92.3 µM)	100 mg/L (≈ 185 µM)	100 mg/L (≈ 185 µM)	100 mg/L (≈ 185 µM)	25 mg/L (≈ 46.2 µM)	1.5 mg/L (≈ 2.77 µM)	6 mg/L (≈ 11.1 µM)	0.25 mg/L (≈ 0.462 µM)	1.5 mg/L (≈ 2.77 µM)	3 mg/L (≈ 5.54 µM)	25 mg/L (≈ 46.2 µM)	100 mg/L (≈ 185 µM)	100 mg/L (≈ 185 µM)	50 mg/L (≈ 92.3 µM)	12.5 mg/L (≈ 23.1 µM)	6 mg/L (≈ 11.1 µM)		CC1(C)S[C@@H]2[C@H](NC(=O)[C@H](NC(=O)NS(=O)(=O)N3CCOCC3)c3ccccc3)C(=O)N2[C@H]1C(=O)O [XIV, D-6-[α-{3-(morpholino-sulfonyl)-ureido}-benzylcarbonamido]-penicillanic acid]	3 mg/L (≈ 5.54 µM)
25 mg/L (≈ 53 µM)	50 mg/L (≈ 106 µM)	100 mg/L (≈ 212 µM)	> 100 mg/L	50 mg/L (≈ 106 µM)	> 100 mg/L	6 mg/L (≈ 12.7 µM)	25 mg/L (≈ 53 µM)	3 mg/L (≈ 6.36 µM)	0.5 mg/L (≈ 1.06 µM)	0.5 mg/L (≈ 1.06 µM)	25 mg/L (≈ 53 µM)	25 mg/L (≈ 53 µM)	> 100 mg/L	> 100 mg/L	100 mg/L (≈ 212 µM)	6 mg/L (≈ 12.7 µM)	50 mg/L (≈ 106 µM)		CC1(C)S[C@@H]2[C@H](NC(=O)[C@H](NC(=O)NS(N)(=O)=O)c3ccccc3)C(=O)N2[C@H]1C(=O)O [XVI, D-6-[α-{3-(aminosulfonyl)-ureido}-benzylcarbonamido]-penicillanic acid]	0.12 mg/L (≈ 0.254 µM)
